The source of these data is US6861260B2, “Lipid membrane, method for measuring membrane permeability, and method for screening” (Chugai Seiyaku Kabushiki Kaisha, priority 2000, dated 2005).

Where two headings read alike, the source gives them in different places. Marks after values point to notes of the source that are not given here.

A short description of data set [1]: Artificial lipid membrane permeability measurement (96-well filter plate, absorbance). Type of data set: in vitro ADME. Set-up: Permeability coefficient (P), Example 2 / Permeability coefficient (P), Comparative Example 1: unit: cm/s. The conditions noted are these: 0.5 mmol/L sample; for Papp at 0.5 mmol/L: PAMPA; for Permeability coefficient (P), Comparative Example 1: membrane of Comparative Example 1 (phosphatidylcholine, cholesterol and 1,9-decadiene 2:1:97). (In general: In PAMPA a lipid-coated filter parts donor from acceptor wells.)

For data set [2] the following is noted: literature data, References *1 to *4; cited from earlier work.
[3] abbreviates: membrane of Example 1 (phosphatidylcholine 2, cholesterol 1, stearic acid 0.2 %, w/w in 1,7-octadiene), pH 7.0, read-out: Permeability coefficient (P), Example 1.
Where [4] appears, read: membrane of Example 2 (phosphatidylcholine 0.75, phosphatidylethanolamine 0.75, phosphatidylserine 0.25, phosphatidylinositol 0.25, cholesterol 1 %, w/w in 1,7-octadiene), pH 6.5.
Setting [5] is: membrane of Example 3 (phosphatidylcholine and 1,6-heptadiene 2:98), buffer pH 6.5 to pH 7.0, read-out: Permeability coefficient (P), Example 3.
Setting [6] is: membrane of Example 4 (phosphatidylcholine and 1,7-octadiene 2:98), buffer pH 6.5 to pH 7.0, read-out: Permeability coefficient (P), Example 4.
The mark [7] stands for this setting: membrane of Example 5 (phosphatidylcholine and 1,8-nonadiene 2:98), buffer pH 6.5 to pH 7.0, read-out: Permeability coefficient (P), Example 5.
The mark [8] stands for this setting: membrane of Comparative Example 2 (phosphatidylcholine and 1,9-decadiene 2:98), buffer pH 6.5 to pH 7.0, read-out: Permeability coefficient (P), Comparative Example 2.
Setting [9] is: membrane of Example 2 (phosphatidylcholine 0.75, phosphatidylethanolamine 0.75, phosphatidylserine 0.25, phosphatidylinositol 0.25, cholesterol 1 %, w/w in 1,7-octadiene), pH 6.5, read-out: Permeability coefficient (P), Example 2.

On to `CC(C)NCC(O)COc1cccc2[nH]ccc12` (stereo not shown) [Pindolol], for which, in data set [1] (setting [3]), the Papp at 0.5 mmol/L worked out at 11 ×10⁻⁶ cm/s. Further, the “Permeability coefficient (P), Comparative Example 1” value in data set [1] (pH 6.5) is 2.71E-08. In data set [1] (setting [4]), the “Permeability coefficient (P), Example 2” value was determined as 7.94E-06. Besides, in data set [2], the “Human intestinal absorption (Fa, %)” value is 90*^1%.

On to `NS(=O)(=O)c1cc2c(cc1Cl)NCNS2(=O)=O` [Hydrochlorothiazide], for which the Papp at 0.5 mmol/L in data set [1] (setting [5]) is 5.86 ×10⁻⁶ cm/s; in data set [1] (setting [6]), 1.52 ×10⁻⁶ cm/s; in data set [1] (setting [7]) it was 1.82 ×10⁻⁶ cm/s; in data set [1] (setting [8]), 0.751 ×10⁻⁶ cm/s; in data set [1] (setting [3]), 1.34 ×10⁻⁶ cm/s; in data set [1] (setting [9]), 1.55 ×10⁻⁶ cm/s. For the same molecule, the “Permeability coefficient (P), Comparative Example 1” value in data set [1] (pH 6.5) was 8.64E-07.

In the case of `CO/N=C(\C(=O)N[C@@H]1C(=O)N2C(C(=O)O)=C(COC(N)=O)CS[C@H]12)c1ccco1` [Cefuroxime], the Papp at 0.5 mmol/L in data set [1] (setting [3]) amounted to 0.16 ×10⁻⁶ cm/s; in data set [1] (setting [9]), 0.0443 ×10⁻⁶ cm/s. Besides, in data set [1] (pH 6.5), the “Permeability coefficient (P), Comparative Example 1” value came out at 2.76E-08. The “Human intestinal absorption (Fa, %)” value in data set [2] is reported as 5*^1%.

Regarding `O=C(O)c1cc(/N=N/c2ccc(S(=O)(=O)Nc3ccccn3)cc2)ccc1O` [Sulfasalazine], the Papp at 0.5 mmol/L in data set [1] (setting [3]) was 3.24 ×10⁻⁶ cm/s. Besides, the “Permeability coefficient (P), Comparative Example 1” value in data set [1] (pH 6.5) is listed as 3.12E-07. Besides, in data set [1] (setting [4]), the “Permeability coefficient (P), Example 2” value was 1.07E-06. In data set [2], the “Human intestinal absorption (Fa, %)” value is given as 65*^1%.

Turning to `Nc1ccn([C@@H]2O[C@H](CO)[C@@H](O)[C@@H]2O)c(=O)n1` [Cytarabine], the figures for the Papp at 0.5 mmol/L in data set [1] (setting [3]) and in data set [1] (setting [9]) were 0.889 ×10⁻⁶ cm/s and 0.0387 ×10⁻⁶ cm/s, respectively. In addition, in data set [1] (pH 6.5), the “Permeability coefficient (P), Comparative Example 1” value was 3.87E-08.

Consider `NS(=O)(=O)c1cc2c(cc1Cl)N=CNS2(=O)=O` [Chlorothiazide], for which, in data set [1] (setting [3]), the Papp at 0.5 mmol/L is 2.24 ×10⁻⁶ cm/s. For the same molecule, in data set [1] (pH 6.5), the “Permeability coefficient (P), Comparative Example 1” value was 4.98E-08. Further, the “Permeability coefficient (P), Example 2” value in data set [1] (setting [4]) turned out to be 2.71E-07.

For the molecule `CC(C)NCC(O)COc1cccc2ccccc12` (stereo not shown) [Propranolol], the Papp at 0.5 mmol/L in data set [1] (setting [5]) is 43.8 ×10⁻⁶ cm/s; in data set [1] (setting [6]) it was 21.5 ×10⁻⁶ cm/s; in data set [1] (setting [7]) it was 24.6 ×10⁻⁶ cm/s; in data set [1] (setting [8]) it was 12.5 ×10⁻⁶ cm/s.

Regarding `N=C(N)N/N=C/c1c(Cl)cccc1Cl` [Guanabenz], in data set [1] (setting [3]), the Papp at 0.5 mmol/L was found to be 19.5 ×10⁻⁶ cm/s. Moreover, the “Permeability coefficient (P), Comparative Example 1” value in data set [1] (pH 6.5) is recorded as 4.14E-06. In data set [1] (setting [4]), the “Permeability coefficient (P), Example 2” value is on record as 1.04E-05. Further, in data set [2], the “Human intestinal absorption (Fa, %)” value is on record as 75*^1%.

Turning to `CNC(=C[N+](=O)[O-])NCCSCc1ccc(CN(C)C)o1` [Ranitidine], the Papp at 0.5 mmol/L in data set [1] (setting [3]) turned out to be 1.22 ×10⁻⁶ cm/s. In addition, the “Permeability coefficient (P), Comparative Example 1” value in data set [1] (pH 6.5) came out at 1.34E-07. In addition, the “Permeability coefficient (P), Example 2” value in data set [1] (setting [4]) was found to be 2.19E-06.

For the molecule `N=C(N)NC(=O)c1nc(Cl)c(N)nc1N` [Amiloride], the Papp at 0.5 mmol/L in data set [1] (setting [3]) amounted to 2.69 ×10⁻⁶ cm/s. Besides, the “Permeability coefficient (P), Comparative Example 1” value in data set [1] (pH 6.5) is reported as 6.10E-08. The “Permeability coefficient (P), Example 2” value in data set [1] (setting [4]) is given as 6.73E-07. In addition, the “Human intestinal absorption (Fa, %)” value in data set [2] is given as 50*^3%.

Consider `C[C@H]1c2cccc(O)c2C(=O)C2=C(O)[C@]3(O)C(=O)C(C(N)=O)=C(O)[C@@H](N(C)C)[C@@H]3[C@@H](O)[C@@H]21` [Doxycycline], for which, in data set [1] (setting [3]), the Papp at 0.5 mmol/L amounted to 7.07 ×10⁻⁶ cm/s. The “Permeability coefficient (P), Comparative Example 1” value in data set [1] (pH 6.5) came to 1.52E-06. Further, the “Permeability coefficient (P), Example 2” value in data set [1] (setting [4]) worked out at 2.35E-05. Further, the “Human intestinal absorption (Fa, %)” value in data set [2] is 95*^3%.

Consider `CC[C@H](C)C(=O)O[C@H]1C[C@H](O)C=C2C=C[C@H](C)[C@H](CC[C@@H](O)C[C@@H](O)CC(=O)O)[C@H]21` [Pravastatin], for which the Papp at 0.5 mmol/L in data set [1] (setting [3]) worked out at 2.69 ×10⁻⁶ cm/s. Further, the “Permeability coefficient (P), Comparative Example 1” value in data set [1] (pH 6.5) worked out at 7.21E-08. For the same molecule, in data set [1] (setting [4]), the “Permeability coefficient (P), Example 2” value was 6.12E-07. For the same molecule, the “Human intestinal absorption (Fa, %)” value in data set [2] is recorded as 34*^1%.

`CO/N=C(\C(=O)N[C@@H]1C(=O)N2C(C(=O)O)=C(CSc3nc(=O)c(=O)[nH]n3C)CS[C@H]12)c1csc(N)n1` [Ceftriaxone]: the Papp at 0.5 mmol/L in data set [1] (setting [3]) amounted to 1.37 ×10⁻⁶ cm/s. Further, the “Permeability coefficient (P), Comparative Example 1” value in data set [1] (pH 6.5) worked out at 1.66E-08. For the same molecule, the “Permeability coefficient (P), Example 2” value in data set [1] (setting [4]) worked out at 2.25E-07. Besides, in data set [2], the “Human intestinal absorption (Fa, %)” value is 1*^4%.

On to `CC(=O)Nc1ccc(OCC(O)CNC(C)C)cc1` (stereo not shown) [Practolol], for which the Papp at 0.5 mmol/L in data set [1] (setting [3]) stood at 1.01 ×10⁻⁶ cm/s. Besides, in data set [1] (pH 6.5), the “Permeability coefficient (P), Comparative Example 1” value was found to be 4.36E-07. In addition, the “Permeability coefficient (P), Example 2” value in data set [1] (setting [4]) is 1.53E-06.

For the molecule `CCOC(=O)[C@H](CCc1ccccc1)N[C@@H](C)C(=O)N1CCC[C@H]1C(=O)O` [Enalapril], the Papp at 0.5 mmol/L in data set [1] (setting [3]) was 0.802 ×10⁻⁶ cm/s; in data set [1] (setting [9]), 1.37 ×10⁻⁶ cm/s. Also, the “Permeability coefficient (P), Comparative Example 1” value in data set [1] (pH 6.5) came to 1.09E-06. Moreover, the “Human intestinal absorption (Fa, %)” value in data set [2] is listed as 65*^3%.

`CC(C(=O)O)c1cccc(C(=O)c2ccccc2)c1` (stereo not shown) [Ketoprofen]: the Papp at 0.5 mmol/L in data set [1] (setting [5]) was determined as 50.5 ×10⁻⁶ cm/s; in data set [1] (setting [6]), 13.6 ×10⁻⁶ cm/s; in data set [1] (setting [7]), 16.8 ×10⁻⁶ cm/s; in data set [1] (setting [8]), 9.22 ×10⁻⁶ cm/s.

For `CC(C)(C)NCC(O)COc1cccc2c1CC(O)C(O)C2` (stereo not shown) [Nadolol], the Papp at 0.5 mmol/L in data set [1] (setting [3]) was determined as 3.28 ×10⁻⁶ cm/s. For the same molecule, in data set [1] (pH 6.5), the “Permeability coefficient (P), Comparative Example 1” value was 5.26E-07. Moreover, in data set [2], the “Human intestinal absorption (Fa, %)” value is on record as 35*^1%.

In the case of `CCN1CCCC1CNC(=O)c1cc(S(N)(=O)=O)ccc1OC` (stereo not shown) [Sulpiride], the Papp at 0.5 mmol/L in data set [1] (setting [3]) came out at 1.34 ×10⁻⁶ cm/s. Moreover, the “Permeability coefficient (P), Comparative Example 1” value in data set [1] (pH 6.5) came to 8.33E-08. Moreover, the “Permeability coefficient (P), Example 2” value in data set [1] (setting [4]) is on record as 2.23E-06.

`CC(=O)Nc1ccc(O)cc1` [Acetaminophen]: the Papp at 0.5 mmol/L in data set [1] (setting [3]) is 8.17 ×10⁻⁶ cm/s. Moreover, the “Permeability coefficient (P), Comparative Example 1” value in data set [1] (pH 6.5) was found to be 4.98E-08. The “Permeability coefficient (P), Example 2” value in data set [1] (setting [4]) turned out to be 1.79E-06. In data set [2], the “Human intestinal absorption (Fa, %)” value is recorded as 80*^1%.

For the molecule `CCCC(=O)Nc1ccc(OCC(O)CNC(C)C)c(C(C)=O)c1` (stereo not shown) [Acebutolol], in data set [1] (setting [3]), the Papp at 0.5 mmol/L was found to be 4.45 ×10⁻⁶ cm/s. Moreover, the “Permeability coefficient (P), Comparative Example 1” value in data set [1] (pH 6.5) is reported as 1.91E-07. In addition, the “Permeability coefficient (P), Example 2” value in data set [1] (setting [4]) came out at 3.67E-06. In data set [2], the “Human intestinal absorption (Fa, %)” value is reported as 90*^1%.

As to `CN(C)[C@@H]1C(O)=C(C(N)=O)C(=O)[C@@]2(O)C(O)=C3C(=O)c4c(O)cccc4[C@@](C)(O)[C@H]3[C@H](O)[C@@H]12` [Oxytetracycline], the Papp at 0.5 mmol/L in data set [1] (setting [3]) was 3.31 ×10⁻⁶ cm/s. Also, in data set [1] (pH 6.5), the “Permeability coefficient (P), Comparative Example 1” value is 8.31E-07. In addition, in data set [1] (setting [4]), the “Permeability coefficient (P), Example 2” value worked out at 5.87E-06. Also, the “Human intestinal absorption (Fa, %)” value in data set [2] was 60*^3%.

Regarding `O=C1CC[C@@]2(O)[C@H]3Cc4ccc(O)c5c4[C@@]2(CCN3CC2CC2)[C@H]1O5` [Naltrexone], the Papp at 0.5 mmol/L in data set [1] (setting [3]) is 11.2 ×10⁻⁶ cm/s. Moreover, the “Permeability coefficient (P), Comparative Example 1” value in data set [1] (pH 6.5) amounted to 9.61E-06. The “Permeability coefficient (P), Example 2” value in data set [1] (setting [4]) turned out to be 4.50E-06.

Consider `CC(C)(C)NC[C@H](O)COc1nsnc1N1CCOCC1` [Timolol], for which the Papp at 0.5 mmol/L in data set [1] (setting [3]) was 9.13 ×10⁻⁶ cm/s. The “Permeability coefficient (P), Comparative Example 1” value in data set [1] (pH 6.5) was found to be 1.05E-06. The “Permeability coefficient (P), Example 2” value in data set [1] (setting [4]) is 1.19E-05. Also, the “Human intestinal absorption (Fa, %)” value in data set [2] was 90*^1%.

On to `COCCc1ccc(OCC(O)CNC(C)C)cc1` (stereo not shown) [Metoprolol], for which the Papp at 0.5 mmol/L in data set [1] (setting [3]) was 9.42 ×10⁻⁶ cm/s. Besides, the “Permeability coefficient (P), Comparative Example 1” value in data set [1] (pH 6.5) stood at 7.49E-07. Moreover, the “Permeability coefficient (P), Example 2” value in data set [1] (setting [4]) was 6.88E-06.
